{"source": "patent US7071168B2", "about": "“Anti-cancer compounds and methods related thereto” (The Regents of the University of Colorado, priority 1998, dated 2006)", "key": {"SCLC strain SHP-77": {"test_system": "SCLC strain SHP-77", "assay": "Colorimetric tetrazolium (MTT) assay for cell survival, SCLC strain SHP-77", "format": "cell-based, human", "experimental": "(§1) In general, Anti-bradykinin activity was determined by the classical guinea pig ileum assay and on Chinese hamster ovary (CHO) cells expressing cloned human bradykinin B2 receptors. Anti-tumor activity was determined on cultured human cancer cell lines using the standard tetrazolium (MTT) assay.\nCell growth and survival were measured by a rapid colorimetric assay based on the tetrazolium salt MTT (3-(4,5-dimethylthiazol-2-yl)-2,5-diphenyl tetrazolium bromide) (Mosmann, J Immunol. Methods 65: 55–63, 1983, with minor modifications). Briefly, 1,000 normal lung fibroblasts or normal epithelial BEAS-2B cells, 1,000 or 5,000 viable non-SCLC cells or 10,000 viable SCLC cells were plated in 100 μL of growth medium in 96-well flat-bottomed microtiter plates. Cells were incubated overnight to allow recovery. Compounds to be tested were added to the cells in triplicate in a range of concentrations and the cells were incubated at 37° C., 5% CO2, with 100% humidity. Control cells were treated in the same way without antagonists. […] Plates were incubated for 4 days, allowing sufficient time for cell replication and compound-induced cell death to occur. On day 5, 25 μL of a 2 mg/mL solution of MTT (Sigma) dissolved in RMPI-1640was added to each well. The plate was incubated for 4 h at 37° C. The supernate was removed and the blue formazan complex was dissolved by adding 100 μL of 0.02 N HCl in 75% isopropanol to all wells. Absorbance was immediately determined using a scanning multiwell plate reader. B9870 caused 50% cell death at a concentration of 0.15 μM under these conditions."}, "[1]": {"test_system": "bradykinin response of isolated guinea pig ileum", "assay": "Anti-bradykinin activity on isolated guinea pig ileum", "conditions": "higher numbers indicate higher potency", "experimental": "as §1\nMale Hartley guinea pigs that had been deprived of food overnight were sacrificed, and sections of terminal ileum, 25 mm in length, were dissected, attached to tissue holders and immersed in 10 ml tissue baths containing Krebs' solution bubbled with 95% O2/5% CO2. Tissues were placed under 1 g tension and incubated for 1 h equilibration. Concentration-effect curves were constructed to bradykinin in the absence and presence of new compounds."}, "[2]": {"conditions": "isolated guinea pig ileum, pD2 of bradykinin is 7.4"}}}
{"compound": "F5c-DArg-hPhe-Arg [M612]", "values": [{"measurement": "MTT: ED50 for killing of SCLC strain SHP-77 in vitro", "setting": "SCLC strain SHP-77; Table 1, SHP-77, MTT, 4 days", "result": "Inact"}]}
{"compound": "COC(=O)C(Cc1ccc(OCc2ccccc2)cc1)N(Cc1ccc(N(C)C)cc1)C(=O)C=Cc1c(F)c(F)c(F)c(F)c1F", "note": "(centres unmarked) [M614]", "values": [{"measurement": "MTT: ED50 for killing of SCLC strain SHP-77 in vitro", "setting": "SCLC strain SHP-77; SCLC strain SHP-77 in vitro", "result": 9.1, "unit": "µM"}]}
{"compound": "N=C(N)Nc1ccc(CC(NC(=O)C(Cc2ccc3ccccc3c2)NC(=NC2CCCCC2)NC2CCCCC2)C(=O)O)cc1", "note": "(centres unmarked) [M354]", "values": [{"measurement": "GPI: pA2 for bradykinin antagonist activity on isolated guinea pig ileum", "setting": "[1]; [2]", "result": 5.2}]}
{"compound": "DArg-Arg-Pro-Hyp-Gly-Thi-Ser-CpG-DCpG-DArg [B8858]", "values": [{"measurement": "GPI: pA2 for bradykinin antagonist activity on isolated guinea pig ileum", "setting": "[1]; Table 1", "result": 5.2}]}
{"compound": "DDD-(Eac-Arg-Digl-Oic-Arg)2 [B10198-2]", "values": [{"measurement": "MTT: ED50 for killing of SCLC strain SHP-77 in vitro", "setting": "SCLC strain SHP-77; Table 1, SHP-77, MTT, 4 days", "result": 15, "unit": "µM"}]}
{"compound": "Aca-DArg-Arg-Pro-Hyp-Gly-Thi-Ser-(D,L)Igl-Oic-Arg [B9224-2]", "values": [{"measurement": "GPI: pA2 for bradykinin antagonist activity on isolated guinea pig ileum", "setting": "[1]; Table 1", "result": 8.4}]}
{"compound": "CN(C)c1ccc(CNC(=O)C(Cc2ccc(OCc3c(Cl)cccc3Cl)cc2)NC(=O)C=Cc2c(F)c(F)c(F)c(F)c2F)cc1", "note": "(centres unmarked) [M798]", "values": [{"measurement": "MTT: ED50 for killing of SCLC strain SHP-77 in vitro", "setting": "SCLC strain SHP-77; SCLC strain SHP-77 in vitro", "result": 37, "unit": "µM"}]}
{"compound": "F5c-Trp-Arg [M426]", "values": [{"measurement": "GPI: pA2 for bradykinin antagonist activity on isolated guinea pig ileum", "setting": "[1]; Table 1", "result": "Inact"}]}
{"compound": "Arg-Eac-DIgl-Ana-Arg [M406]", "values": [{"measurement": "GPI: pA2 for bradykinin antagonist activity on isolated guinea pig ileum", "setting": "[1]; Table 1", "result": "Inact"}]}
{"compound": "CC1(C)C=C(C(=O)NCCNC(=O)[C@H](Cc2ccc3ccccc3c2)NC(=NC2CCCCC2)NC2CCCCC2)C(C)(C)N1", "note": "[M270]", "values": [{"measurement": "GPI: pA2 for bradykinin antagonist activity on isolated guinea pig ileum", "setting": "[1]; [2]", "result": 6.1}]}
{"compound": "Aaa-DTic-hPhe-Arg [M764]", "values": [{"measurement": "GPI: pA2 for bradykinin antagonist activity on isolated guinea pig ileum", "setting": "[1]; Table 1", "result": 4.8}]}
{"compound": "CC1(C)CC(NC(=O)C(CC(=O)O)NC(=O)Cc2ccc(NC(=O)C=Cc3ccc(C(F)(F)F)cc3)cc2)CC(C)(C)N1", "note": "(centres unmarked) [M368]", "values": [{"measurement": "GPI: pA2 for bradykinin antagonist activity on isolated guinea pig ileum", "setting": "[1]; [2]", "result": 4.7}]}
{"compound": "F5c-Dpr(Fbz)-Arg [M688]", "values": [{"measurement": "GPI: pA2 for bradykinin antagonist activity on isolated guinea pig ileum", "setting": "[1]; Table 1", "result": "Inact"}]}
{"compound": "c[Arg-DNMF-DTrp-Phe-DTrp-Leu] [B10306]", "values": [{"measurement": "MTT: ED50 for killing of SCLC strain SHP-77 in vitro", "setting": "SCLC strain SHP-77; Table 3, cyclic peptides", "result": "Inact"}]}
{"compound": "α-Lys-DArg-Arg-Pro-Hyp-Gly-Igl-Ser-DIgl-Oic-Arg Sub-Arg-DNMF-DTrp-Phe-DTrp-Leu [B9950]", "values": [{"measurement": "MTT: ED50 for killing of SCLC strain SHP-77 in vitro", "setting": "SCLC strain SHP-77; Table 1, SHP-77, MTT, 4 days", "result": 8, "unit": "µM"}]}
{"compound": "CC1(C)CC(NC(=O)C(Cc2ccc(OCc3c(Cl)cccc3Cl)cc2)NC(=O)CN(CCN(CC(=O)NC(Cc2ccc(OCc3c(Cl)cccc3Cl)cc2)C(=O)NC2CC(C)(C)NC(C)(C)C2)CC(=O)NC(Cc2ccc(OCc3c(Cl)cccc3Cl)cc2)C(=O)NC2CC(C)(C)NC(C)(C)C2)CC(=O)NC(Cc2ccc(OCc3c(Cl)cccc3Cl)cc2)C(=O)NC2CC(C)(C)NC(C)(C)C2)CC(C)(C)N1", "note": "(centres unmarked) [M1040, EDTA-(OC2Y-ATMP)4]", "values": [{"measurement": "MTT: ED50 for killing of SCLC strain SHP-77 in vitro", "setting": "SCLC strain SHP-77; SCLC strain SHP-77 in vitro", "result": 0.73, "unit": "µM"}]}
{"compound": "DDD-(DArg-PFF-Arg-NH2)2 [M818]", "values": [{"measurement": "MTT: ED50 for killing of SCLC strain SHP-77 in vitro", "setting": "SCLC strain SHP-77; Table 1, SHP-77, MTT, 4 days", "result": 60, "unit": "µM"}]}
{"compound": "CC1(C)CC(NC(=O)[C@H](Cc2ccc3ccccc3c2)NC(=O)C23CC4CC(CC(C4)C2)C3)CC(C)(C)N1", "note": "[M250]", "values": [{"measurement": "GPI: pA2 for bradykinin antagonist activity on isolated guinea pig ileum", "setting": "[1]; [2]", "result": 5.2}]}
{"compound": "F5c-Thi-Arg [M424]", "values": [{"measurement": "GPI: pA2 for bradykinin antagonist activity on isolated guinea pig ileum", "setting": "[1]; Table 1", "result": 4.6}]}
{"compound": "Ac-Pac-Gly-m-Abz-2-Nal-Arg [M198]", "values": [{"measurement": "GPI: pA2 for bradykinin antagonist activity on isolated guinea pig ileum", "setting": "[1]; Table 1", "result": 5.1}]}
{"compound": "N=C(N)NC(Cc1ccc2ccccc2c1)C(=O)Nc1ccc(CC(=O)O)cc1", "note": "(centres unmarked) [M38]", "values": [{"measurement": "GPI: pA2 for bradykinin antagonist activity on isolated guinea pig ileum", "setting": "[1]; [2]", "result": 4.9}]}
{"compound": "F5c-Bip-Arg [M394]", "values": [{"measurement": "GPI: pA2 for bradykinin antagonist activity on isolated guinea pig ileum", "setting": "[1]; Table 1", "result": 4.7}]}
{"compound": "F5c-Lys(F5bz)-Arg [M682]", "values": [{"measurement": "GPI: pA2 for bradykinin antagonist activity on isolated guinea pig ileum", "setting": "[1]; Table 1", "result": 4.9}]}
{"compound": "CC1(C)CC(NC(=O)C(CC(=O)O)NC(=O)Cc2ccc(NC(=O)C=Cc3c(F)c(F)c(F)c(F)c3F)cc2)CC(C)(C)N1", "note": "(centres unmarked) [M364]", "values": [{"measurement": "GPI: pA2 for bradykinin antagonist activity on isolated guinea pig ileum", "setting": "[1]; [2]", "result": 4.7}]}
{"compound": "Dcg-2Nal-Arg [M10]", "values": [{"measurement": "GPI: pA2 for bradykinin antagonist activity on isolated guinea pig ileum", "setting": "[1]; Table 1", "result": 4.8}]}
{"compound": "F5c-APb-Arg [M372]", "values": [{"measurement": "GPI: pA2 for bradykinin antagonist activity on isolated guinea pig ileum", "setting": "[1]; Table 1", "result": 4.6}]}
{"compound": "Dcg-Ile-Arg [M84]", "values": [{"measurement": "GPI: pA2 for bradykinin antagonist activity on isolated guinea pig ileum", "setting": "[1]; Table 1", "result": 5.1}]}
{"compound": "Gun-Eac-DIgl-Oic-Arg [M42]", "values": [{"measurement": "GPI: pA2 for bradykinin antagonist activity on isolated guinea pig ileum", "setting": "[1]; Table 1", "result": 5.0}]}
{"compound": "Dcg-(D,L)Ata-Arg [M96]", "values": [{"measurement": "GPI: pA2 for bradykinin antagonist activity on isolated guinea pig ileum", "setting": "[1]; Table 1", "result": 4.7}]}
{"compound": "N=C(Nc1ccc(CC(NC(=O)c2ccc3ccccc3c2)C(=O)O)cc1)NC1CCCCC1", "note": "(centres unmarked) [M168-1]", "values": [{"measurement": "GPI: pA2 for bradykinin antagonist activity on isolated guinea pig ileum", "setting": "[1]; [2]", "result": 4.8}]}
{"compound": "Ac-PdF-Arg [M118-3]", "values": [{"measurement": "GPI: pA2 for bradykinin antagonist activity on isolated guinea pig ileum", "setting": "[1]; Table 1", "result": 5.4}]}
{"compound": "O=C(O)CC(NC(=NC1CCCCC1)NC1CCCCC1)C(=O)NC1CN2CCC1CC2", "note": "(centres unmarked) [M174]", "values": [{"measurement": "GPI: pA2 for bradykinin antagonist activity on isolated guinea pig ileum", "setting": "[1]; [2]", "result": "Inact"}]}
{"compound": "CC1(C)CC(NC(=O)C(CCC(=O)O)NC(=O)C(Cc2ccc3ccccc3c2)NC(=NC2CCCCC2)NC2CCCCC2)CC(C)(C)N1", "note": "(centres unmarked) [M350]", "values": [{"measurement": "GPI: pA2 for bradykinin antagonist activity on isolated guinea pig ileum", "setting": "[1]; [2]", "result": 5.0}]}
{"compound": "O=C(O)C(Cc1cccnc1)NC(=O)C(Cc1ccc2ccccc2c1)NC(=NC1CCCCC1)NC1CCCCC1", "note": "(centres unmarked) [M104]", "values": [{"measurement": "GPI: pA2 for bradykinin antagonist activity on isolated guinea pig ileum", "setting": "[1]; [2]", "result": 4.9}]}
{"compound": "F5c-Pac-Arg [M398]", "values": [{"measurement": "GPI: pA2 for bradykinin antagonist activity on isolated guinea pig ileum", "setting": "[1]; Table 1", "result": "Inact"}]}
